Reference: PMC4450769, “Placement of oppositely charged aminoacids at a polypeptide termini determines the voltage-controlled braking of polymer transport through nanometer-scale pores” (Scientific Reports, 2015)

Tested on: Staphylococcus aureus α-hemolysin (α-HL) pore
Type: biochemical

In the case of “Ac-RRRRRRAAAAAARRRRRR- NH 2 [CP2, control peptide construct with net charge of ~ +6 e− at both N- and C-termini at neutral pH]”, the “capture by the pore as a function of potential polarity” value (5 µM) is reported as “captured by the pore only for positive potentials” and the “association with and block of the α-HL pore at negatively applied potential” value (pH 7.3) is reported as “does not associate and block”.
